Data as given in patent US20170051149A1, “AZOARYLS AS REVERSIBLY MODULATABLE TUBULIN INHIBITORS” (ECOLE NORMALE SUPERIEURE DE LYON, priority 2014, published 2017).

Key:
[1] = thermal reversion halflife of spontaneous cis->trans isomerisation; assay type: physicochemical
From the text: Finally, trends in τ were ascertained by establishing the PSS at λstrong, then turning off the light source at time t0, and measuring A(λstrong, t) over time. Data were acquired for half an hour, or else the first three halflives (whichever was the shorter period), then fitted to the equation:
A(λstrong,t)=A(λstrong,dark)−[A(λstrong,dark)−A(λstrong,t0)]×e^−kt
This fit was used to return an in vitro halflife τ* for the cis->trans spontaneous thermal reversion isomerisation process, defined as τ=ln 2/k. It should be noted however, that azoaryl compounds' thermal reversion rates are known to depend strongly upon their microenvironment, such as pH and solvent/solvation effects^[7,38]. This was shown for compound (I.1), where a change of only 1.4 pH units gave a 25% change in τ*; note that different compounds are expected to respond very differently to changes in pH so no unifying trends are expected. Therefore the τ* acquired in vitro were considered appropriate only for qualitative intercomparison between samples (trend of τ* vs structure), rather than quantitative prediction of the τ values which might be experienced in cellulo or in vivo. Indeed, these in vitro τ* values appeared at least three times longer than what would have been expected based on in cellulo experiments where the pause time between activating pulses was varied.
Thermal reversion times were measured as described above. Those for selected compounds are presented below (Table 2).

[2] = photoisomerisation: photostationary state, calculated φ(λ) and E(λ), reversible cycling; assay type: physicochemical
Procedure: In a simple analysis of the PSS(λ) and E(λ), it was approximated that ΦEZ and ΦZE (the quantum efficiencies of the photoisomerisations trans->cis and cis->trans, respectively) are equal and independent of wavelength, and also that the kinetics of spontaneous reversion could be ignored (eg. high-intensity light source). A function φ(λ) was then calculated as per: […]
If ΦEZ and ΦZE are equal and independent of wavelength, φ(λ) gives the true PSS(λ). The wavelength independence of ΦEZ and ΦZE may be an acceptable approximation in regions of relatively strong absorption within the visible spectrum. Their equality may also be an acceptable assumption: since if ΦEZ and ΦZE are unequal but only depend weakly on wavelength in regions of relatively strong absorption, then φ(λ) is a transform of the true PSS(λ); this transform preserves the features of PSS(λ) which were most desired for evaluation in this study as long as ΦEZ and ΦZE are not too different (eg less than a factor of ten difference). Indeed, the calculated φ(λ) were later confirmed by in cellulo experiments to give reliable indications of favourable wavelengths for bulk trans->cis and bulk cis->trans photoisomerisation, which is the benchmark for a suitable analysis of the PSS(λ). The advantages of calculating φ(λ) rather than exhaustively measuring the PSS(λ) experimentally are that (a) the throughput is much faster, (b) the true PSS(λ) may be difficult to achieve at weakly-absorbing wavelengths or with fast-relaxing compounds, (c) the true PSS(λ) may be difficult to measure accurately at wavelengths where one isomer strongly dominates the sample even if both are relatively strongly absorbing, and (d) the variation of PSS(λ) with changes in the local biological microenvironment (polarity, pH etc) may anyway be larger than the error incurred by the assumption φ(λ)═PSS(λ).
Also following the assumption that ΦEZ and ΦZE are equal and independent of wavelength, a photoisomerisation efficiency E(λ) was calculated as per:
E(λ)=[εE(λ)+εZ(λ)]/[εE(390)+εZ(390)]
Larger values of E(λ) therefore denote higher efficiency photoisomerisation (less photon flux is required to approach the PSS(λ)). E(λ) was parametrised to the absorption coefficients at 390 nm, since typically that wavelength gave satisfactorily strong absorption and efficient photoisomerisation. It should be noted that E(λ) are not intercomparable between different compounds. This reflects the realistic scenario that the ΦEZ (or the ΦZE) of two arbitrarily chosen compounds may differ by a significant amount, even if the approximation that ΦEZ and ΦZE are equal and independent of wavelength applies independently to each compound.
A(λstrong) was measured over time in the UV-Vis cuvette in non-degassed PBS left open to the atmosphere, […], at 37° C., while the monochromator was used to apply λirrad alternating between two values λ1 and λ2, chosen to induce net trans->cis and net cis->trans isomerisation respectively. Typical results are presented for compound I.1 (FIG. 3). The absorbance of I.1 (18 μM) was measured at λstrong=378 nm, while the irradiating wavelength was held alternately at λ1=388 nm (50 s; bulk trans->cis) then λ2=508 nm (180 s, bulk cis->trans). Higher absorbance corresponds to a greater amount of trans isomer: an absorbance of 0.27 here corresponds to an approximately 5:1 ratio of trans:cis isomer in the sample, and an absorbance of 0.12 here corresponds to an approximately 1:2 ratio of trans:cis isomer in the sample. […] Typically, compounds of the invention could be bulk-photoisomerised hundreds of times over a timescale of hours (50 representative cycles are shown in FIG. 3 for I.1), such that the majority species in a sample was photocontrollably alternated between the trans-isomer and the cis-isomer. […]

τ, reversion time ([1]; PBS pH = 6, 20% MeCN)	E(388)/E(508) [2]	E(λ) ([2]; 390 nm)	% cis after photoisomerisation from all-trans ([2]; 390 nm light)	E(λ) ([2]; 410 nm)	% cis after photoisomerisation from all-trans ([2]; 450 nm light)	E(λ) ([2]; 475 nm)	E(λ) ([2]; 490 nm)	E(λ) ([2]; 505 nm)	E(λ) ([2]; 525 nm)	φ(490) ([2]; calculated from εE and εZ)	φ(505) ([2]; calculated from εE and εZ)	% cis after subsequent irradiation ([2]; subsequent 505 nm light)	Structure (SMILES)	τ, reversion time ([1]; PBS pH = 7.4, 20% MeCN)	% trans ([2]; irradiation at 554 nm, 33 μM, PBS 20% MeCN, 37° C.)	% cis before photorelaxation ([2]; state before 550 nm irradiation)	% trans after photorelaxation ([2]; very low intensity light of 550 nm)
8.4 min	0.04	1.00	approx. 90%	0.59	approx. 50%	0.14	0.08	0.04	0.02	0.30	0.23	approx. 20%	COc1ccc(N=Nc2cc(OC)c(OC)c(OC)c2)cc1O [I.1, 2-methoxy-5-((3,4,5-trimethoxyphenyl)diazenyl)phenol]	6.2 min	–	–	–
–	–	–	–	–	–	–	–	–	–	–	–	–	CCN(CC)c1ccc2c(-c3ccccc3C(=O)N3CCN(CCCOc4c(N=Nc5cc(OC)c(OC)c(OC)c5)ccc(OC)c4C)CC3)c3ccc(=[N+](CC)CC)cc-3oc2c1.CCN(CC)c1ccc2c(-c3ccccc3C(=O)N3CCN(CCCOc4c(N=Nc5cc(OC)c(OC)c(OC)c5)ccc(OC)c4C)CC3)c3ccc(=[N+](CC)CC)cc-3oc2c1.O=C[O-].O=C[O-] [I.25, N-(6-(diethylamino)-9-(2-(4-(3-(3-methoxy-2-methyl-6-((3,4,5-trimethoxyphenyl)diazenyl)phenoxy)propyl)piperazine-1-carbonyl)phenyl)-3H-xanthen-3-ylidene)-N-ethylethanaminium bis(formate) salt]	16.2 min	100%	> 70%	> 99%
